Values of other authors in patent US20180318338A1, “METHODS AND COMPOSITIONS FOR THE PREVENTION OF SUICIDE, HOMICIDE AND SELF-HARMING BEHAVIORS” (THE MCLEAN HOSPITAL CORPORATION, priority 2015, published 2018).

Conditions: in vivo

- blood level of xenon: 100 to 200 nL xenon/mL blood
Compound: [Xe] [xenon]
